Assay results published in US20220175761A1, “BI-LIGAND DRUG CONJUGATE AND USE THEREOF” (COHERENT BIOPHARMA (SUZHOU), LIMITED, priority 2019, published 2022).
Square brackets hold non-standard residues; d marks the D form. Peptide text beside a SMILES is read from it. * marks the point of attachment. Dolaproine = CO[C@@H]([C@@H]1CCCN1)[C@@H](C)C(=O)O; Dil = CC[C@H](C)[C@H](NC)[C@@H](CC(=O)O)OC; X1 = C[C@@H](N*)[C@@H](O)c1ccccc1; NMeV = CN[C@H](C(=O)O)C(C)C

Experiments:
FOLH1 = FOLH1 (Homo sapiens, UniProt Q04609); assay: Gator binding affinity to FOLH1 (SA probe with Biotin-CB-20BK, analyte FOLH1); set-up: purchased Sino Biologicals 15877-H07H
Method: SA probe (Probe Life, Cat #: 1906018)
Buffer: Q buffer (Probe Life), 10 mM, pH=7.4
(2) The experiment was carried out according to Gator™ (Probe Life) instruction manual to determine the binding affinity of Biotin-CB-20BK to FOLH1. In the experiment, SA probe binds to ligand Biotin-CB-20BK, and the analyte is FOLH1 (Sino Biologicals, Cat #: 15877-H07H).

[1] = test system: KB, T-47D, NCI-H460, CALU-3, HuH-7, and LNCaP tumor cell lines; assay: Inhibition of tumor cell expansion, CCK8 (CB-20BK); type: cell-based, human
Method: Cell lines: KB human oral epidermoid carcinoma cells, T-47D human breast cancer cells, NCI-H460 human lung cancer cells, CALU-3 human lung adenocarcinoma cells, HuH-7 human liver cancer cells and LNCaP human prostate cancer cells
The cells were prepared in advance, digested with trypsin, collected and counted; with a complete cell culture medium, KB cells were diluted to 2.5×10^4 cells/ml, T-47D cells were diluted to 1.3×10^4 cells/ml, NCI-H460 cells were diluted to 3.5×10^4 cells/ml, CALU-3 cells were diluted to 4.0×10^4 cells/ml, HuH-7 cells were diluted to 3.0×10^4 cells/ml, and LNCaP cells were diluted to 8.0×10^4 cells/ml; 100 μl of the diluted cell solution was added to each well of 96-well plates; and negative control and blank control wells were set on each plate. The 96-well plates added with the cells were placed in an incubator at 37° C., 5% CO2 for culturing overnight.
The samples were diluted with a culture medium to desired concentrations (see Table 8). […]
To each well, 15 μl (10% of the liquid volume in a well) of a color developing solution from CCK-8 was added; the plates were incubated at 37° C. for an appropriate time (try to keep the OD value in the range of 1.0-2.0); the covers of the 96-well plates were removed, and the plates were read at 450 nm on a microplate reader (Molecular Devices Spectra MAX Plus). […]

[2] = test system: lung cancer PDX model LU1206; assay: Effectiveness in lung cancer LU1206 model (PDX model); type: in vivo, BALB/c nude mice
Method: BALB/c nude mice bore tumors subcutaneously and, when the tumor volume reached about 150 mm^3, were grouped into: low-dose, medium-dose and high-dose test sample groups, a small molecule MMAE control group, a targeting polypeptide 20BK-SM09 control group, and a blank control group (a total of 6 groups, and 8 mice per group); the mice were administered on day 1, day 8 and day 15 after the grouping; and the observation was continued for 14 days after the last administration.

[3] = test system: MDA-MB-468 (human breast cancer cells); assay: Inhibition of cell line proliferation, CCK8; type: cell-based; conditions: MDA-MB-468, 68-72 hours, CCK8
[4] = test system: NCI-H226 (human lung cancer cells); assay: Inhibition of cell line proliferation, CCK8; type: cell-based; conditions: NCI-H226, 68-72 hours, CCK8
[5] = 0.375 mg/kg on day 1, 8, 15, euthanized on day 29

Chain of FOLH1 (Q04609 44-750 limits assumed): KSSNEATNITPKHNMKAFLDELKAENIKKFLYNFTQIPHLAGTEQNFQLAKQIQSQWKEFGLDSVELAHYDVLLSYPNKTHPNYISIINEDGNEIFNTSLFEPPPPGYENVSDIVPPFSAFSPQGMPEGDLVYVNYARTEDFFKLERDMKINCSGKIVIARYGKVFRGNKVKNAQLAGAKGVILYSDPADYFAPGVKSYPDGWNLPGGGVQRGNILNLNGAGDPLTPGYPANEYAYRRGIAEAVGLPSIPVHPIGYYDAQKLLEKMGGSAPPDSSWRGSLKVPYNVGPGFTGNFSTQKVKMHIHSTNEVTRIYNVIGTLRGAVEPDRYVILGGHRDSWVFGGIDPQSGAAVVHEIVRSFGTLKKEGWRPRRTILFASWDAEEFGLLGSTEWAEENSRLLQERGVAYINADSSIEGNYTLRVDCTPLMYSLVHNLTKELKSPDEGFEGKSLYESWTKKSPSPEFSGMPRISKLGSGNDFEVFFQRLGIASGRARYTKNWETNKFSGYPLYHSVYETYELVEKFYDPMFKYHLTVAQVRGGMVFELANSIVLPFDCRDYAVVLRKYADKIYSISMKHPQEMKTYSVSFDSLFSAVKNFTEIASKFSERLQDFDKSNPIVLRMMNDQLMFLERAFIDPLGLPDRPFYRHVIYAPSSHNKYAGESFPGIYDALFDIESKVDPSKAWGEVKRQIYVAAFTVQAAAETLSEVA

SMILES | binding to FOLH1 (in words) (FOLH1) | inhibitory effect on growth and expansion of tumor cell lines ([1]; 72 hours, CCK-8) | IC50 compared between cell lines ([1]; T-47D, KB, LNCaP, HuH-7 and CALU-3 versus NCI-H460) | tumor growth inhibition effect (in words) ([2]; 0.375 mg/kg) | Tumor volume ([2]; 0.375 mg/kg on day 1, 8, 15) | Tumor volume Tumor growth inhibition rate ([2]; 0.375 mg/kg on day 1, 8, 15) | Tumor weight [2, 5] | Tumor weight Inhibition ratio [2, 5] | IC50 [3] | IC50 [4]
CC[C@H](C)[C@@H]([C@@H](CC(=O)N1CCC[C@H]1[C@H](OC)[C@@H](C)C(=O)N[C@H](C)[C@@H](O)c1ccccc1)OC)N(C)C(=O)[C@@H](NC(=O)[C@H](C(C)C)N(C)C(=O)OCc1ccc(NC(=O)C(CCCNC(N)=O)NC(=O)[C@@H](NC(=O)CCCCCN2C(=O)CC(SC[C@H](NC(=O)[C@H](CCCCN)NC(=O)[C@H](CC(=O)O)NC(=O)[C@H](CC(=O)O)NC(=O)Cc3ccc(CNC(=O)NCCCC[C@H](NC(=O)N[C@@H](CCC(=O)O)C(=O)O)C(=O)O)cc3)C(=O)N[C@@H](CCCCNC(=O)CC[C@H](NC(=O)c3ccc(NCc4cnc5[nH]c(N)nc(=O)c5n4)cc3)C(=O)O)C(N)=O)C2=O)C(C)C)cc1)C(C)C (stereo partly shown) [CB-20BK] | binds to FOLH1 with a good affinity | has an inhibitory effect | significantly lower | – | – | – | – | – | – | –
CC[C@H](C)[C@@H]([C@@H](CC(=O)N1CCC[C@H]1[C@H](OC)[C@@H](C)C(=O)N[C@H](C)[C@@H](O)c1ccccc1)OC)N(C)C(=O)[C@@H](NC(=O)[C@@H](NC)C(C)C)C(C)C [MMAE, monomethyl auristatin E] (H-[NMeV]V[Dil][Dolaproine]-X1) | – | – | – | clear tumor growth inhibition effect | 778.32 mm^3 | 36.03% | 437.73 mg | 54.53% | 2 nM | 6 nM
